The values below are quoted from earlier work in publication PMC2884396 (Journal of medicinal chemistry, 2010).

For one data set, the system named is androgen receptor (AR). As to conditions: ref [24]-[27].
In data set [1] the test system is glucocorticoid receptor (GR). The note with it: ref [24]-[27].

Regarding `Cn1c(C#N)ccc1-c1ccc2c(c1)C(C)(C)OC(=S)N2` [Tanaproget (1), Tanaproget], the “affinity for AR” value with androgen receptor (AR) is “very low affinity”. The “affinity for GR” value in data set [1] is on record as “very low affinity”.
